Results from ChEMBL document CHEMBL4354830, “Discovery of Benzo[cd]indol-2(1H)-ones and Pyrrolo[4,3,2-de]quinolin-2(1H)-ones as Bromodomain and Extra-Terminal Domain (BET) Inhibitors with Selectivity for the First Bromodomain with Potential High Efficiency against Acute Gouty Arthritis” (J Med Chem, 2019).
Activity calls are given as the source filed them. No cut-off for these calls is given here.

Legend:
[1] = test system: Rattus norvegicus; assay: (§1) In vivo inhibition of MSU-induced pyroptosis in Sprague-Dawley rat model of acute gout arthritis assessed as caspase-/PI- macrophage cells in synovial tissue at 1 mg/kg, ia administered 1 hr before MSU challenge and measured upto 24 hrs by PI staining based flow cytometric analysis (reference value: 63.6 %); assay type: functional; design: scale not given: the % may be the effect or the level left
[2] = test system: Rattus norvegicus; assay: as §1, with “caspase-/PI+” for “caspase-/PI-”, “8.71” for “63.6”; assay type: functional; design: scale not given: the % may be the effect or the level left
[3] = molecular target: T1, Bromodomain-containing protein 4 (Homo sapiens, UniProt O60885); assay: Displacement of tetra-acetylated histone H4 peptide (1-21) from recombinant human N-terminal His-tagged BRD4 BD2 (349 to 460 residues) expressed in Escherichia coli incubated for 30 mins followed by further incubation with tetra-acetylated histone H4 peptide (1-21) for 30 mins by Alphascreen assay
[4] = molecular target: Bromodomain-containing protein 3 (Homo sapiens, UniProt Q15059); assay: Displacement of tetra-acetylated histone H4 peptide (1-21) from BRD3 BD1 (unknown origin) incubated for 30 mins followed by further incubation with tetra-acetylated histone H4 peptide (1-21) for 30 mins by Alphascreen assay
[5] = molecular target: Bromodomain-containing protein 2 (Homo sapiens, UniProt P25440); assay: Displacement of tetra-acetylated histone H4 peptide (1-21) from BRD2 BD2 (unknown origin) incubated for 30 mins followed by further incubation with tetra-acetylated histone H4 peptide (1-21) for 30 mins by Alphascreen assay
[6] = molecular target: T2, Peregrin (Homo sapiens, UniProt P55201); assay: Displacement of tetra-acetylated histone H4 peptide (1-21) from BRPF1b (unknown origin) incubated for 30 mins followed by further incubation with tetra-acetylated histone H4 peptide (1-21) for 30 mins by Alphascreen assay
T2 sequence (P55201 whole entry): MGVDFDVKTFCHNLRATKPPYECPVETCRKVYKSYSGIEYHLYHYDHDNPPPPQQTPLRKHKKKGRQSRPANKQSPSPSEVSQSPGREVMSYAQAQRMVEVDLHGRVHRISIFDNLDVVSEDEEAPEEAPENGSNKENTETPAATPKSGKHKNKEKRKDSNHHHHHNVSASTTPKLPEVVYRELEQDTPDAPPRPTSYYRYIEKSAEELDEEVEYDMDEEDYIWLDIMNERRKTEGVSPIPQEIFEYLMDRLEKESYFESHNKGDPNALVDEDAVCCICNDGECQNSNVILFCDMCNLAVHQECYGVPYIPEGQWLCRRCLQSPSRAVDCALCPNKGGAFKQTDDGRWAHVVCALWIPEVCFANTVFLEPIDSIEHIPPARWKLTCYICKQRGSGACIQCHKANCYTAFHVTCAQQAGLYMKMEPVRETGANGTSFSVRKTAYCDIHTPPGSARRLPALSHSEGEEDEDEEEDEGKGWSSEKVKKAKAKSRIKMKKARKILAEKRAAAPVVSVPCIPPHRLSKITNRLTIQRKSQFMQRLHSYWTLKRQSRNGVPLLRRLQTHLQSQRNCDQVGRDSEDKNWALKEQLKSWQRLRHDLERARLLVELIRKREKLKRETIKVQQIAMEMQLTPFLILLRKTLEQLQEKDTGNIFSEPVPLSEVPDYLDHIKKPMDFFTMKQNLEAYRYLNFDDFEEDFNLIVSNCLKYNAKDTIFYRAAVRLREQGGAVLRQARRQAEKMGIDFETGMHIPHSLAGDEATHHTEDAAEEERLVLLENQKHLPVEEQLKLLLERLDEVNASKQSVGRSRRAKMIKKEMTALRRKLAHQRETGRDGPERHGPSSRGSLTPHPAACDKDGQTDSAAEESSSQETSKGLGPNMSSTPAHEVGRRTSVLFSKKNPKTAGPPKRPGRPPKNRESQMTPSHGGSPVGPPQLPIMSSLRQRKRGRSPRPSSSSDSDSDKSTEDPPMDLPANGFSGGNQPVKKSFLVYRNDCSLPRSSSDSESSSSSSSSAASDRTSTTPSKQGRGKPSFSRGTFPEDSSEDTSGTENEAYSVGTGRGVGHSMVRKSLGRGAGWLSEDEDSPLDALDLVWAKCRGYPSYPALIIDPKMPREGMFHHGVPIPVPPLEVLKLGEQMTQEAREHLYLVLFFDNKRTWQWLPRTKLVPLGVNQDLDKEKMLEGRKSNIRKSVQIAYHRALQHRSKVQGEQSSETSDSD

[7] = species on record: Homo sapiens; assay: Selectivity index, ratio of IC50 for BRD2 BD2 (unknown origin) to IC50 for BRD2 BD1 (unknown origin) by AlphaScreen assay
[8] = species on record: Homo sapiens; assay: Selectivity index, ratio of IC50 for BRD3 BD2 (unknown origin) […] (unknown origin) by AlphaScreen assay
[9] = Metabolic stability in human liver microsomes assessed as half life measured upto 60 mins by LC/MS-MS analysis; assay type: ADME, Microsome
[10] = Metabolic stability in monkey liver microsomes assessed as intrinsic clearance per mg protein measured upto 60 mins by LC/MS-MS analysis; assay type: ADME, Macaca mulatta, Microsome; conditions: rhesus monkey, read-out: CLH
[11] = Metabolic stability in rat liver microsomes assessed as half life measured upto 60 mins by LC/MS-MS analysis; assay type: ADME, Microsome
[12] = molecular target: T1, Bromodomain-containing protein 4; assay: Inhibition of BRD4 BD1 in human THP1 cells assessed as inhibition of MSU-induced NF-kappaB P65 phosphorylation at 1 uM incubated for 1 hr followed by MSU treatment and measured after 12 hrs by Western blot analysis; assay type: cell-based
[13] = molecular target: T1, Bromodomain-containing protein 4; assay: Inhibition of BRD4 BD1 in human THP1 cells assessed as inhibition of MSU-induced NLRP3 inflammasome at 1 uM incubated for 1 hr followed by MSU treatment and measured after 12 hrs by Western blot analysis; assay type: cell-based
[14] = molecular target: T1, Bromodomain-containing protein 4; assay: Inhibition of BRD4 BD1 in human THP1 cells assessed as inhibition of MSU-induced NLRP3 inflammasome at 1 uM incubated for 1 hr followed by MSU treatment and measured after 12 hrs by immunofluorescence based confocal microscopy analysis; assay type: cell-based
[15] = test system: Rattus norvegicus; assay: In vivo inhibition of MSU-induced NLRP3 inflammasome in synovial tissue of Sprague-Dawley rat model of acute gout arthritis at 1 mg/kg, ia administered 1 hr before MSU challenge and measured upto 24 hrs by immunofluorescence based confocal microscopy analysis; assay type: functional, organism-based
[16] = molecular target: T1, Bromodomain-containing protein 4; assay: Inhibition of BRD4 BD1 in human THP1 cells assessed as inhibition of MSU-induced pyroptosis by measuring caspase+/PI- cells at 1 uM incubated for 1 hr followed by MSU treatment and measured after 12 hrs by PI/caspase 1 double staining based flow cytometric analysis (reference value: 4.2 %); assay type: cell-based; design: scale not given: the % may be the effect or the level left
[17] = molecular target: T1, Bromodomain-containing protein 4; assay: Inhibition of BRD4 BD1 in human THP1 cells assessed as inhibition of MSU-induced pyroptosis by measuring caspase+/PI+ cells at 1 uM incubated for 1 hr followed by MSU treatment and measured after 12 hrs by PI/caspase 1 double staining based flow cytometric analysis (reference value: 12.7 %); assay type: cell-based; design: scale not given: the % may be the effect or the level left
[18] = molecular target: T1, Bromodomain-containing protein 4; assay: Inhibition of BRD4 BD1 in human THP1 cells assessed as inhibition of MSU-induced pyroptosis by measuring caspase-/PI+ cells at 1 uM incubated for 1 hr followed by MSU treatment and measured after 12 hrs by PI/caspase 1 double staining based flow cytometric analysis (reference value: 6.8 %); assay type: cell-based; design: scale not given: the % may be the effect or the level left
[19] = species on record: Homo sapiens; assay: Selectivity ratio of Kd for immobilized DNA-tagged human BRD4 BD1 to Kd for immobilized DNA-tagged human BRD4 BD2 by BROMOscan analysis

Bromodomain-containing protein 2, sequence (P25440 whole entry): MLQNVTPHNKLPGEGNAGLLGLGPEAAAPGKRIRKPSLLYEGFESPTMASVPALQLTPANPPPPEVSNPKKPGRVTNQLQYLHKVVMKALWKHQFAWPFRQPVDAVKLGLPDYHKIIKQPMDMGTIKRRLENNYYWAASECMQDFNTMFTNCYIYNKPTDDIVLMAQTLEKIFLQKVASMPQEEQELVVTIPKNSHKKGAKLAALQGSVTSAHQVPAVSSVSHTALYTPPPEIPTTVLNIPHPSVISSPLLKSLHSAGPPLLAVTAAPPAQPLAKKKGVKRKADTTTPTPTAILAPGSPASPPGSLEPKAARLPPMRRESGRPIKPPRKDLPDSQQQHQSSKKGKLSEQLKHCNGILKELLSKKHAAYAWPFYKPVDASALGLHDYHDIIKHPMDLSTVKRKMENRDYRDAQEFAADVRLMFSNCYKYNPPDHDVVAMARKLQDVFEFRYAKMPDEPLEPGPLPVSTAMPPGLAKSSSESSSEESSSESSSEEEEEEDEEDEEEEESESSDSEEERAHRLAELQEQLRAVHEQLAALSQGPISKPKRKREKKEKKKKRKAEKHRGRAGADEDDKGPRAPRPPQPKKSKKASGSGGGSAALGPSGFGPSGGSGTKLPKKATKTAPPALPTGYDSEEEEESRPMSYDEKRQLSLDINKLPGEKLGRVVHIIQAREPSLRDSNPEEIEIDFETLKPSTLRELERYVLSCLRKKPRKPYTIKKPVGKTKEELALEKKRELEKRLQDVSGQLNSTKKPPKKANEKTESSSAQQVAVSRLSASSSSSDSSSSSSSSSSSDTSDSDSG
Bromodomain-containing protein 3, sequence (Q15059 whole entry): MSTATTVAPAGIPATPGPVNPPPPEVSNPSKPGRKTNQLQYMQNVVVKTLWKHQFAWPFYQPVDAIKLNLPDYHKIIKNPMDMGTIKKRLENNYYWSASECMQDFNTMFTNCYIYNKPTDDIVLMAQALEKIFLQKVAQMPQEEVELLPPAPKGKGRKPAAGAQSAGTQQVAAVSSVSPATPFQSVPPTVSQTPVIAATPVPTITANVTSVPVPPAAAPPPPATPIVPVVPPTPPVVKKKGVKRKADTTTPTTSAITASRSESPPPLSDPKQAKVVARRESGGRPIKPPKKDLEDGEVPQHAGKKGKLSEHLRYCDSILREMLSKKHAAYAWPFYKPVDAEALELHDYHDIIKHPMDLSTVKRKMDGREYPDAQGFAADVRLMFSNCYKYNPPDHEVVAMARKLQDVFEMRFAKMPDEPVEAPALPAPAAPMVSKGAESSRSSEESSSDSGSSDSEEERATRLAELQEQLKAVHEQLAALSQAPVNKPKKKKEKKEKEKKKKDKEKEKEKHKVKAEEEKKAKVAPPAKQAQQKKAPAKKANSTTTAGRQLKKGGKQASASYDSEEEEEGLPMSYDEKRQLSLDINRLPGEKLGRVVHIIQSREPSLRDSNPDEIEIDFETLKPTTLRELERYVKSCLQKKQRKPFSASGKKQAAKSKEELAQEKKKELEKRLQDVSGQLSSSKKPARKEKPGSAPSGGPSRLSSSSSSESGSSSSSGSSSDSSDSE

COc1ccccc1S(=O)(=O)Nc1ccc2c3c(cc(-n4cnc(C)c4)nc13)C(=O)N2C
Activity [1]: 83.1% | Activity [2]: 15.4% | IC50 [3]: 12.1 µM | IC50 [4]: 0.246 µM | IC50 [5]: 21.4 µM | IC50 [6]: 0.568 µM | Ratio IC50 [7]: 2.4 | Ratio IC50 [8]: 202 | half-life [9]: 14.8 min | microsomal CLint [10]: 135 µL/min/mg | half-life [11]: 9.45 min | inhibition [12]: Active | inhibition [13]: Active | inhibition [14]: Active | inhibition [15]: Active | Activity [16]: 4.1% | Activity [17]: 4.4% | Activity [18]: 4.9% | Selectivity ratio [19]: 238
